# Test results taken from the supplement of paper PMC4862054.
# What was measured:
# Conditions in all cases: 72 h
# MDA-MB-468 = tested on: MDA-MB-468
# Summary of the method: (§1)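 For viability and cell death testing, 384-well plates carried compound at 5 concentrations in 10-fold steps over a compound-specific 10,000-fold range, and breast cancer cell lines were seeded in 20 µl suspension. After 72 h incubation, cell death was read by CellTox Green fluorescence (485/520 nm) before viability was read by CellTiter-Glo luminescence. EC50 was fitted from the dose-response curves and censored at the top concentration. Normalisation on each plate was to 0.1 % DMSO and a positive kill control.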
# CAL-148 = tested on: CAL-148
# Summary of the method: (§2)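 To measure viability, fluorescence at 560/590 nm was read after 2.5 µl CellTiter-Blue had been added for 2 h at 37 °C. Cells from breast cancer lines had been seeded in 20 µl suspension onto 384-well plates pre-loaded with compound dissolved in 5 µl medium and kept for 72 h. EC50 comes from a fitted percent-inhibition dose-response curve censored at the highest concentration, after per-plate normalisation to vehicle and a positive kill control, Z'-factor checks, and removal of rows with zero drug sensitivity score.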
# MDA-MB-453 = tested on: MDA-MB-453
# Summary of the method: as §2
# HCC1937 = tested on: HCC1937
# Summary of the method: as §2
# MDA-MB-231 = tested on: MDA-MB-231
# Summary of the method: as §2
# BT-474 = tested on: BT-474
# Summary of the method: as §1
# CAL-51 = tested on: CAL-51
# Summary of the method: as §1
# CAL-120 = tested on: CAL-120
# Summary of the method: as §2
smiles,measurement,setting,value
CNCc1ccc(-c2[nH]c3cc(F)cc4c3c2CCNC4=O)cc1 [Rucaparib],"EC50, CellTiter-Glo",MDA-MB-468,1710 nM
same,"EC50, CellTiter-Blue viability",CAL-148,7670 nM
same,"EC50, CellTiter-Blue viability",MDA-MB-453,6180 nM
same,"EC50, CellTiter-Blue viability",HCC1937,945 nM
same,"EC50, CellTiter-Blue viability",MDA-MB-231,683 nM
CN[C@@H]1C[C@H]2O[C@@](C)([C@@H]1OC)n1c3ccccc3c3c4c(c5c6ccccc6n2c5c31)C(=O)N[C@H]4O [UCN-01],"EC50, CellTiter-Glo",BT-474,43.4 nM
same,"EC50, CellTiter-Glo",CAL-51,77.5 nM
same,"EC50, CellTiter-Glo",MDA-MB-468,93.2 nM
same,"EC50, CellTiter-Blue viability",CAL-148,2350 nM
same,"EC50, CellTiter-Blue viability",MDA-MB-453,182 nM
same,"EC50, CellTiter-Blue viability",CAL-120,24.5 nM
same,"EC50, CellTiter-Blue viability",HCC1937,58 nM
same,"EC50, CellTiter-Blue viability",MDA-MB-231,59.2 nM
CO[C@H]1/C=C\C=C(/C)C(=O)NC2=CC(=O)C(NCCN(C)C)=C(C[C@@H](C)C[C@H](OC)[C@H](O)[C@@H](C)/C=C(\C)[C@@H]1OC(N)=O)C2=O [Alvespimycin],"EC50, CellTiter-Glo",BT-474,48.8 nM
same,"EC50, CellTiter-Glo",CAL-51,48 nM
same,"EC50, CellTiter-Glo",MDA-MB-468,32 nM
same,"EC50, CellTiter-Blue viability",CAL-148,27.6 nM
same,"EC50, CellTiter-Blue viability",MDA-MB-453,11.2 nM
same,"EC50, CellTiter-Blue viability",CAL-120,27.4 nM
same,"EC50, CellTiter-Blue viability",HCC1937,7.56 nM
same,"EC50, CellTiter-Blue viability",MDA-MB-231,38.9 nM
NC(=O)Nc1cc(-c2cccc(F)c2)sc1C(=O)N[C@H]1CCCNC1 [AZD 7762],"EC50, CellTiter-Blue viability",CAL-148,661 nM
same,"EC50, CellTiter-Blue viability",MDA-MB-453,232 nM
same,"EC50, CellTiter-Blue viability",CAL-120,560 nM
same,"EC50, CellTiter-Blue viability",HCC1937,613 nM
same,"EC50, CellTiter-Blue viability",MDA-MB-231,347 nM
CCC1=C[C@@H]2CN(C1)Cc1c([nH]c3ccccc13)[C@@](C(=O)OC)(c1cc3c(cc1OC)N(C)[C@H]1[C@@](O)(C(=O)OC)[C@H](OC(C)=O)[C@]4(CC)C=CCN5CC[C@]31[C@@H]54)C2 [Vinorelbine],"EC50, CellTiter-Glo",BT-474,76.3 nM
same,"EC50, CellTiter-Glo",CAL-51,118 nM
same,"EC50, CellTiter-Glo",MDA-MB-468,26.7 nM
same,"EC50, CellTiter-Blue viability",CAL-148,49.1 nM
same,"EC50, CellTiter-Blue viability",MDA-MB-453,9.96 nM
same,"EC50, CellTiter-Blue viability",CAL-120,22.5 nM
same,"EC50, CellTiter-Blue viability",HCC1937,26.3 nM
same,"EC50, CellTiter-Blue viability",MDA-MB-231,67.6 nM
COc1cc2nccc(Oc3ccc(NC(=O)C4(C(=O)Nc5ccc(F)cc5)CC4)cc3)c2cc1OC [Cabozantinib],"EC50, CellTiter-Blue viability",CAL-148,558 nM
same,"EC50, CellTiter-Blue viability",MDA-MB-453,874 nM
COc1cc([C@@H]2c3cc4c(cc3[C@@H](O[C@@H]3O[C@@H]5CO[C@@H](C)O[C@H]5[C@H](O)[C@H]3O)[C@H]3COC(=O)[C@H]23)OCO4)cc(OC)c1O [Etoposide],"EC50, CellTiter-Glo",BT-474,2810 nM
same,"EC50, CellTiter-Glo",CAL-51,1090 nM
same,"EC50, CellTiter-Glo",MDA-MB-468,1730 nM
same,"EC50, CellTiter-Blue viability",CAL-148,1130 nM
same,"EC50, CellTiter-Blue viability",CAL-120,2260 nM
same,"EC50, CellTiter-Blue viability",HCC1937,3700 nM
same,"EC50, CellTiter-Blue viability",MDA-MB-231,1020 nM
Oc1nc(-c2ccc(C(F)(F)F)cc2)nc2c1CSCC2 [XAV-939],"EC50, CellTiter-Glo",BT-474,350 nM
same,"EC50, CellTiter-Glo",CAL-51,12.6 nM
same,"EC50, CellTiter-Blue viability",MDA-MB-231,2590 nM
N[C@@H](CSC(c1ccccc1)(c1ccccc1)c1ccccc1)C(=O)O [S-trityl-L-cysteine],"EC50, CellTiter-Blue viability",CAL-120,2000 nM
same,"EC50, CellTiter-Blue viability",HCC1937,715 nM
same,"EC50, CellTiter-Blue viability",MDA-MB-231,955 nM
CC(C)Cn1cnc2c(N)nc3ccccc3c21 [Imiquimod],"EC50, CellTiter-Blue viability",MDA-MB-453,6690 nM
C[C@@H](Oc1cc(-c2cnn(C3CCNCC3)c2)cnc1N)c1c(Cl)ccc(F)c1Cl [Crizotinib],"EC50, CellTiter-Glo",MDA-MB-468,> 1000 nM
same,"EC50, CellTiter-Blue viability",CAL-148,3570 nM
same,"EC50, CellTiter-Blue viability",MDA-MB-453,4070 nM
same,"EC50, CellTiter-Blue viability",CAL-120,2640 nM
same,"EC50, CellTiter-Blue viability",HCC1937,2280 nM
same,"EC50, CellTiter-Blue viability",MDA-MB-231,1360 nM
Cc1ccc(C(=O)Nc2ccc(CN3CCN(C)CC3)c(C(F)(F)F)c2)cc1C#Cc1cnc2cccnn12 [Ponatinib],"EC50, CellTiter-Glo",BT-474,244 nM
same,"EC50, CellTiter-Glo",CAL-51,844 nM
same,"EC50, CellTiter-Glo",MDA-MB-468,> 1000 nM
same,"EC50, CellTiter-Blue viability",CAL-148,295 nM
same,"EC50, CellTiter-Blue viability",MDA-MB-453,282 nM
same,"EC50, CellTiter-Blue viability",CAL-120,190 nM
Cc1ccc(C(=O)N(CCCN)[C@@H](c2oc3cc(Cl)ccc3c(=O)c2Cc2ccccc2)C(C)C)cc1,"EC50, CellTiter-Glo",CAL-51,0.24 nM
same,"EC50, CellTiter-Blue viability",CAL-148,5.81 nM
same,"EC50, CellTiter-Blue viability",MDA-MB-453,5.76 nM
same,"EC50, CellTiter-Blue viability",CAL-120,0.57 nM
same,"EC50, CellTiter-Blue viability",HCC1937,0.62 nM
same,"EC50, CellTiter-Blue viability",MDA-MB-231,0.34 nM
Cn1c(Nc2ccc(C(F)(F)F)cc2)nc2cc(Oc3ccnc(-c4ncc(C(F)(F)F)[nH]4)c3)ccc21 [RAF265],"EC50, CellTiter-Glo",BT-474,692 nM
same,"EC50, CellTiter-Glo",MDA-MB-468,142 nM
same,"EC50, CellTiter-Blue viability",CAL-120,77.8 nM
same,"EC50, CellTiter-Blue viability",HCC1937,99.1 nM
same,"EC50, CellTiter-Blue viability",MDA-MB-231,141 nM
C#Cc1cccc(Nc2ncnc3cc(OCCOC)c(OCCOC)cc23)c1 [Erlotinib],"EC50, CellTiter-Glo",CAL-51,1130 nM
same,"EC50, CellTiter-Blue viability",CAL-148,3630 nM
same,"EC50, CellTiter-Blue viability",MDA-MB-453,8340 nM
same,"EC50, CellTiter-Blue viability",CAL-120,2450 nM
same,"EC50, CellTiter-Blue viability",HCC1937,937 nM
CCN(CCCOc1ccc2c(Nc3cc(CC(=O)Nc4cccc(F)c4)[nH]n3)ncnc2c1)CCOP(=O)(O)O [Barasertib],"EC50, CellTiter-Blue viability",CAL-148,7.07 nM
same,"EC50, CellTiter-Blue viability",MDA-MB-453,6.32 nM
same,"EC50, CellTiter-Blue viability",CAL-120,30 nM
same,"EC50, CellTiter-Blue viability",HCC1937,29.6 nM
same,"EC50, CellTiter-Blue viability",MDA-MB-231,156 nM
